Experimental findings from patent US12304890B2, “R-type pyridyloxycarboxylic acid, salt and ester derivative thereof, and preparation method therefor, and herbicidal composition and application thereof” (Qingdao Kingagroot Chemical Compound Co., Ltd., priority 2018, dated 2025) are described below.

SMILES strings stand for the structures.

This assay deals with Monocotyledonous and dicotyledonous weed seeds and main crop seeds. The assay is described as follows: Post-emergence test experiment, other weeds and crops (Table 4, 1000 g a.i./ha). It counts as in vivo. As to conditions: 3 weeks in greenhouse, fresh weight inhibition. As for the experimental part: The above described growth inhibition rate is fresh weight inhibition rate.
Post-emergence test experiment: Monocotyledonous and dicotyledonous weed seeds and main crop seeds (i. e. wheat, corn, rice, soybean, cotton, oilseed, millet and sorghum.) were put into a plastic pot loaded with soil. Then covered with 0.5-2 cm soil, the seeds were allowed to grow in good greenhouse environment. The test plants were treated at 2-3 leaf stage 2 weeks after sowing. The test compounds of the invention were dissolved with acetone respectively, then added with tween-80, and using 1.5 liters per hectare of an emulsible concentrate of methyl oleate as a synergist, and diluted by certain amount of water to certain concentration. The solution was sprayed to the plants with a sprayer.

Turning to `NCCOCCO.Nc1c(Cl)c(F)nc(O[C@@H](C(=O)O)c2ccccc2)c1Cl` [Compound 2-11], the “Activity level (growth inhibition rate), Abutilon theophrasti Medic.” value was 5 (Level 5: the growth inhibition rate is greater than 85%); the “Activity level (growth inhibition rate), Galium aparine” value is given as 5 (Level 5: the growth inhibition rate is greater than 85%); the “Activity level (growth inhibition rate), Monochoria Vaginalis” value is given as 5 (Level 5: the growth inhibition rate is greater than 85%).

Regarding `COC(=O)C(CCCl)Oc1nc(F)c(Cl)c(N)c1Cl` (stereo not drawn) [Compound 2-42], the “Activity level (growth inhibition rate), Abutilon theophrasti Medic.” value was 5 (Level 5: the growth inhibition rate is greater than 85%); the “Activity level (growth inhibition rate), Galium aparine” value is 5 (Level 5: the growth inhibition rate is greater than 85%); the “Activity level (growth inhibition rate), Monochoria Vaginalis” value was 5 (Level 5: the growth inhibition rate is greater than 85%).

`COC(=O)[C@@H](Oc1nc(F)c(Cl)c(N)c1Cl)c1cccs1` [Compound 2-65]: the “Activity level (growth inhibition rate), Abutilon theophrasti Medic.” value is 5 (Level 5: the growth inhibition rate is greater than 85%); the “Activity level (growth inhibition rate), Galium aparine” value is 5 (Level 5: the growth inhibition rate is greater than 85%); the “Activity level (growth inhibition rate), Monochoria Vaginalis” value is reported as 5 (Level 5: the growth inhibition rate is greater than 85%).

For the compound `CSC(=O)C(Oc1nc(F)c(Cl)c(N)c1Cl)c1ccccc1` (stereo not drawn) [Compound 2-385], the “Activity level (growth inhibition rate), Abutilon theophrasti Medic.” value was 5 (Level 5: the growth inhibition rate is greater than 85%); the “Activity level (growth inhibition rate), Galium aparine” value was 5 (Level 5: the growth inhibition rate is greater than 85%); the “Activity level (growth inhibition rate), Monochoria Vaginalis” value is given as 5 (Level 5: the growth inhibition rate is greater than 85%).

Take `CCCC(Oc1nc(F)c(Cl)c(N)c1Cl)C(=O)OC` (stereo not drawn) [Compound 2-37]: the “Activity level (growth inhibition rate), Abutilon theophrasti Medic.” value is given as 5 (Level 5: the growth inhibition rate is greater than 85%); the “Activity level (growth inhibition rate), Galium aparine” value is recorded as 5 (Level 5: the growth inhibition rate is greater than 85%); the “Activity level (growth inhibition rate), Monochoria Vaginalis” value is 5 (Level 5: the growth inhibition rate is greater than 85%).

Regarding `COC(=O)C(CC(F)(F)F)Oc1nc(F)c(Cl)c(N)c1Cl` (stereo not drawn) [Compound 2-40], the “Activity level (growth inhibition rate), Abutilon theophrasti Medic.” value is listed as 5 (Level 5: the growth inhibition rate is greater than 85%); the “Activity level (growth inhibition rate), Galium aparine” value is 5 (Level 5: the growth inhibition rate is greater than 85%); the “Activity level (growth inhibition rate), Monochoria Vaginalis” value is recorded as 5 (Level 5: the growth inhibition rate is greater than 85%).

`COC(=O)C(Cc1ccccc1)Oc1nc(F)c(Cl)c(N)c1Cl` (stereo not drawn) [Compound 2-63]: the “Activity level (growth inhibition rate), Abutilon theophrasti Medic.” value is 5 (Level 5: the growth inhibition rate is greater than 85%); the “Activity level (growth inhibition rate), Galium aparine” value is reported as 5 (Level 5: the growth inhibition rate is greater than 85%); the “Activity level (growth inhibition rate), Monochoria Vaginalis” value is 5 (Level 5: the growth inhibition rate is greater than 85%).

Turning to `C=C[C@@H](Oc1nc(F)c(Cl)c(N)c1Cl)C(=O)OC` [Compound 2-45], the “Activity level (growth inhibition rate), Abutilon theophrasti Medic.” value is recorded as 5 (Level 5: the growth inhibition rate is greater than 85%); the “Activity level (growth inhibition rate), Galium aparine” value is recorded as 5 (Level 5: the growth inhibition rate is greater than 85%); the “Activity level (growth inhibition rate), Monochoria Vaginalis” value is 5 (Level 5: the growth inhibition rate is greater than 85%).

For `NCCNCCN.Nc1c(Cl)c(F)nc(OC(C(=O)O)c2ccccc2)c1Cl` (stereo not drawn) [Compound 2-15], the “Activity level (growth inhibition rate), Abutilon theophrasti Medic.” value is reported as 5 (Level 5: the growth inhibition rate is greater than 85%); the “Activity level (growth inhibition rate), Galium aparine” value is given as 5 (Level 5: the growth inhibition rate is greater than 85%); the “Activity level (growth inhibition rate), Monochoria Vaginalis” value was 5 (Level 5: the growth inhibition rate is greater than 85%).

Consider `C#CC(Oc1nc(F)c(Cl)c(N)c1Cl)C(=O)OC` (stereo not drawn) [Compound 2-46], for which the “Activity level (growth inhibition rate), Abutilon theophrasti Medic.” value is 5 (Level 5: the growth inhibition rate is greater than 85%); the “Activity level (growth inhibition rate), Galium aparine” value is listed as 5 (Level 5: the growth inhibition rate is greater than 85%); the “Activity level (growth inhibition rate), Monochoria Vaginalis” value is listed as 5 (Level 5: the growth inhibition rate is greater than 85%).

Regarding `COC(=O)C(N)Oc1nc(F)c(Cl)c(N)c1Cl` (stereo not drawn) [Compound 2-56], the “Activity level (growth inhibition rate), Abutilon theophrasti Medic.” value is given as 5 (Level 5: the growth inhibition rate is greater than 85%); the “Activity level (growth inhibition rate), Galium aparine” value is 5 (Level 5: the growth inhibition rate is greater than 85%); the “Activity level (growth inhibition rate), Monochoria Vaginalis” value was 5 (Level 5: the growth inhibition rate is greater than 85%).

As for `COC(=O)C(Oc1nc(F)c(Cl)c(N)c1Cl)C(F)F` (stereo not drawn) [Compound 2-44], the “Activity level (growth inhibition rate), Abutilon theophrasti Medic.” value is recorded as 5 (Level 5: the growth inhibition rate is greater than 85%); the “Activity level (growth inhibition rate), Galium aparine” value is listed as 5 (Level 5: the growth inhibition rate is greater than 85%); the “Activity level (growth inhibition rate), Monochoria Vaginalis” value is 5 (Level 5: the growth inhibition rate is greater than 85%).

For `CC(C)N.Nc1c(Cl)c(F)nc(O[C@@H](C(=O)O)c2ccccc2)c1Cl` [Compound 2-8], the “Activity level (growth inhibition rate), Abutilon theophrasti Medic.” value is on record as 5 (Level 5: the growth inhibition rate is greater than 85%); the “Activity level (growth inhibition rate), Galium aparine” value is given as 5 (Level 5: the growth inhibition rate is greater than 85%); the “Activity level (growth inhibition rate), Monochoria Vaginalis” value was 5 (Level 5: the growth inhibition rate is greater than 85%).

Regarding `COC(=O)C(CC#N)Oc1nc(F)c(Cl)c(N)c1Cl` (stereo not drawn) [Compound 2-60], the “Activity level (growth inhibition rate), Abutilon theophrasti Medic.” value is reported as 5 (Level 5: the growth inhibition rate is greater than 85%); the “Activity level (growth inhibition rate), Galium aparine” value is 5 (Level 5: the growth inhibition rate is greater than 85%); the “Activity level (growth inhibition rate), Monochoria Vaginalis” value is listed as 5 (Level 5: the growth inhibition rate is greater than 85%).

In the case of `COC(=O)C(Cl)Oc1nc(F)c(Cl)c(N)c1Cl` (stereo not drawn) [Compound 2-53], the “Activity level (growth inhibition rate), Abutilon theophrasti Medic.” value is recorded as 5 (Level 5: the growth inhibition rate is greater than 85%); the “Activity level (growth inhibition rate), Galium aparine” value is 5 (Level 5: the growth inhibition rate is greater than 85%); the “Activity level (growth inhibition rate), Monochoria Vaginalis” value is on record as 5 (Level 5: the growth inhibition rate is greater than 85%).

Turning to `CCC(Oc1nc(F)c(Cl)c(N)c1Cl)C(=O)O.NCCO` (stereo not drawn) [Compound 2-10], the “Activity level (growth inhibition rate), Abutilon theophrasti Medic.” value was 5 (Level 5: the growth inhibition rate is greater than 85%); the “Activity level (growth inhibition rate), Galium aparine” value is 5 (Level 5: the growth inhibition rate is greater than 85%); the “Activity level (growth inhibition rate), Monochoria Vaginalis” value is recorded as 5 (Level 5: the growth inhibition rate is greater than 85%).

In the case of `C[N+](C)(C)CCO.Nc1c(Cl)c(F)nc(O[C@@H](C(=O)[O-])c2ccccc2)c1Cl` [Compound 2-6], the “Activity level (growth inhibition rate), Abutilon theophrasti Medic.” value was 5 (Level 5: the growth inhibition rate is greater than 85%); the “Activity level (growth inhibition rate), Galium aparine” value is 5 (Level 5: the growth inhibition rate is greater than 85%); the “Activity level (growth inhibition rate), Monochoria Vaginalis” value is given as 5 (Level 5: the growth inhibition rate is greater than 85%).

On to `CCC(Oc1nc(F)c(Cl)c(N)c1Cl)C(=O)OC` (stereo not drawn) [Compound 2-34], for which the “Activity level (growth inhibition rate), Abutilon theophrasti Medic.” value is 5 (Level 5: the growth inhibition rate is greater than 85%); the “Activity level (growth inhibition rate), Galium aparine” value is on record as 5 (Level 5: the growth inhibition rate is greater than 85%); the “Activity level (growth inhibition rate), Monochoria Vaginalis” value is on record as 5 (Level 5: the growth inhibition rate is greater than 85%).

`COC(=O)C(Oc1nc(F)c(Cl)c(N)c1Cl)c1ccccc1` (stereo not drawn) [Compound 2-62]: the “Activity level (growth inhibition rate), Abutilon theophrasti Medic.” value is 5 (Level 5: the growth inhibition rate is greater than 85%); the “Activity level (growth inhibition rate), Galium aparine” value is listed as 5 (Level 5: the growth inhibition rate is greater than 85%); the “Activity level (growth inhibition rate), Monochoria Vaginalis” value was 5 (Level 5: the growth inhibition rate is greater than 85%).

On to `CSC(=O)C(Oc1nc(F)c(Cl)c(N)c1Cl)C(C)C` (stereo not drawn) [Compound 2-36], for which the “Activity level (growth inhibition rate), Abutilon theophrasti Medic.” value is given as 5 (Level 5: the growth inhibition rate is greater than 85%); the “Activity level (growth inhibition rate), Galium aparine” value is on record as 5 (Level 5: the growth inhibition rate is greater than 85%); the “Activity level (growth inhibition rate), Monochoria Vaginalis” value is 5 (Level 5: the growth inhibition rate is greater than 85%).

With `COC(=O)C(CCl)Oc1nc(F)c(Cl)c(N)c1Cl` (stereo not drawn) [Compound 2-41], the “Activity level (growth inhibition rate), Abutilon theophrasti Medic.” value is on record as 5 (Level 5: the growth inhibition rate is greater than 85%); the “Activity level (growth inhibition rate), Galium aparine” value is 5 (Level 5: the growth inhibition rate is greater than 85%); the “Activity level (growth inhibition rate), Monochoria Vaginalis” value is listed as 5 (Level 5: the growth inhibition rate is greater than 85%).

With `COC(=O)C(OC)Oc1nc(F)c(Cl)c(N)c1Cl` (stereo not drawn) [Compound 2-58], the “Activity level (growth inhibition rate), Abutilon theophrasti Medic.” value was 5 (Level 5: the growth inhibition rate is greater than 85%); the “Activity level (growth inhibition rate), Galium aparine” value is recorded as 5 (Level 5: the growth inhibition rate is greater than 85%); the “Activity level (growth inhibition rate), Monochoria Vaginalis” value is recorded as 5 (Level 5: the growth inhibition rate is greater than 85%).

As for `CN(C)CCCN.Nc1c(Cl)c(F)nc(OC(C(=O)O)c2ccccc2)c1Cl` (stereo not drawn) [Compound 2-16], the “Activity level (growth inhibition rate), Abutilon theophrasti Medic.” value is given as 5 (Level 5: the growth inhibition rate is greater than 85%); the “Activity level (growth inhibition rate), Galium aparine” value is reported as 5 (Level 5: the growth inhibition rate is greater than 85%); the “Activity level (growth inhibition rate), Monochoria Vaginalis” value is given as 5 (Level 5: the growth inhibition rate is greater than 85%).
